According to PMC12472621, “Excavating Precursors from Herb Pairs Polygala tenuifolia and Acori tatarinowii: Synthesis and Anticonvulsant Activity Evaluation of 3,4,5-Trimethoxycinnamic Acid (TMCA) Piperazine Amide Derivatives” (Pharmaceuticals, 2025):
Like-named read-outs stand apart in the source and are kept apart here.

Tested on: maximal electroshock (MES) induced seizures
Assay: Maximal electroshock (MES) test
Format: in vivo, mice
Conditions: Mus musculus, ip, 100 mg/kg i.p., mice
Description: Male Kunming mice (23–28 g) were maintained under controlled conditions with ad libitum access to standard pellet diet and water. Test compounds were formulated immediately prior to administration in normal saline containing 0.5% Tween-80. Our experiment was authorized by the Institutional Animal Care and Use Committee of Shaanxi University of Chinese Medicine (animal ethics certificate number: SUCMDL20210309027).
The MES test carried out following the method of Swinyard. A 60 Hz current (50 mA; 0.25 s duration) was delivered via corneal electrodes using a YSD-4G electro convulsion meter (Zhenghua Instruments, Huaibei, China, SN: ZH0056232). […] Test compounds were suspended in an identical vehicle. Protection was defined as abolition of tonic hindlimb extension.

[1] = 0.5 h, read-out: MES model, protected mice/total mice, 0.5 h (converted)
[2] = 1 h, read-out: MES model, protected mice/total mice, 1 h (converted)
[3] = 2 h, read-out: MES model, protected mice/total mice, 2 h (converted)
[4] = 3 h, read-out: MES model, protected mice/total mice, 3 h (converted)

Compound COc1cc(/C=C/C(=O)N2CCN(CCCC(=O)O[C@H]3C[C@H]4CC[C@]3(C)C4(C)C)CC2)cc(OC)c1OC (relative stereo) [A7, rel-(1R,2S,4R)-1,7,7-trimethylbicyclo [2.2.1]heptan-2-yl 4-(4-((E)-3-(3,4,5-trimethoxyphenyl)acryloyl)piperazin-1-yl)butanoate] has a responders at 100 mg/kg [1] of 75%, a responders at 100 mg/kg [2] of 50% and a responders at 100 mg/kg [3] of 25%. It also gave a responders at 100 mg/kg [4] of 0%.

In the case of COc1cc(/C=C/C(=O)N2CCN(CCCC(=O)O)CC2)cc(OC)c1OC [A1], the responders at 100 mg/kg [1] is reported as 25%, the responders at 100 mg/kg [2] is reported as 25% and the responders at 100 mg/kg [3] is reported as 0%. For the same compound, the responders at 100 mg/kg [4] was 0%.

With C=CCc1ccc(OC(=O)CCCN2CCN(C(=O)/C=C/c3cc(OC)c(OC)c(OC)c3)CC2)c(OC)c1 [A2, 4-allyl-2-methoxyphenyl (E)-4-(4-(3-(3,4,5-trimethoxyphenyl)acryloyl)piperazin-1-yl)butanoate] the responders at 100 mg/kg [1] was 50%, the responders at 100 mg/kg [2] was 50% and the responders at 100 mg/kg [3] was 25%. It also gave a responders at 100 mg/kg [4] of 0%.

C=CCc1ccccc1OC(=O)CCCN1CCN(C(=O)/C=C/c2cc(OC)c(OC)c(OC)c2)CC1 [A4, 2-allylphenyl (E)-4-(4-(3-(3,4,5-trimethoxyphenyl)acryloyl)piperazin-1-yl)butanoate] showed a responders at 100 mg/kg [1] of 50%, a responders at 100 mg/kg [2] of 50% and a responders at 100 mg/kg [3] of 25%. It also gave a responders at 100 mg/kg [4] of 0%.

With COc1cc(OC)c(OC)cc1/C=C/COC(=O)CCCN1CCN(C(=O)/C=C/c2cc(OC)c(OC)c(OC)c2)CC1 [A5, (E)-3-(2,4,5-trimethoxyphenyl)allyl 4-(4-((E)-3-(3,4,5-trimethoxyphenyl)acryloyl)piperazin-1-yl)butanoate] the responders at 100 mg/kg [1] was 75%, the responders at 100 mg/kg [2] was 75% and the responders at 100 mg/kg [3] was 50%. For the same compound, the responders at 100 mg/kg [4] was 0%.

COc1cc(/C=C/C(=O)N2CCN(CCCC(=O)OCC=Cc3ccccc3)CC2)cc(OC)c1OC [A6, cinnamyl 4-(4-((E)-3-(3,4,5-trimethoxyphenyl)acryloyl)piperazin-1-yl)butanoate] was tested, and the responders at 100 mg/kg [1] was 50%, the responders at 100 mg/kg [2] was 50% and the responders at 100 mg/kg [3] was 25%. For the same compound, the responders at 100 mg/kg [4] was 0%.

With COc1cc(/C=C/C(=O)N2CCN(CCCC(=O)N3CCN(C(c4ccccc4)c4ccccc4)CC3)CC2)cc(OC)c1OC [A8, (E)-1-(4-benzhydrylpiperazin-1-yl)-4-(4-(3-(3,4,5-trimethoxyphenyl)acryloyl)piperazin-1-yl)butan-1-one] the responders at 100 mg/kg [1] was 75%, the responders at 100 mg/kg [2] was 50% and the responders at 100 mg/kg [3] was 25%. The responders at 100 mg/kg [4] was 0%.

With COc1cc(/C=C/C(=O)N2CCN(CCCC(=O)N3CCN(c4nsc5ccccc45)CC3)CC2)cc(OC)c1OC [A10, (E)-1-(4-(benzo[d]isothiazol-3-yl)piperazin-1-yl)-4-(4-(3-(3,4,5-trimethoxyphenyl)acryloyl)piperazin-1-yl)butan-1-one] the responders at 100 mg/kg [1] was 75%, the responders at 100 mg/kg [2] was 25% and the responders at 100 mg/kg [3] was 25%. For the same compound, the responders at 100 mg/kg [4] was 0%.

Compound COc1cc(/C=C/C(=O)N2CCN(CCCC(=O)N3CCN(c4ccccc4)CC3)CC2)cc(OC)c1OC [A11, (E)-1-(4-phenylpiperazin-1-yl)-4-(4-(3-(3,4,5-trimethoxyphenyl)acryloyl)piperazin-1-yl)butan-1-one] has a responders at 100 mg/kg [1] of 25%, a responders at 100 mg/kg [2] of 25% and a responders at 100 mg/kg [3] of 25%. It also gave a responders at 100 mg/kg [4] of 0%.

Work on COc1cc(/C=C/C(=O)N2CCN(CCCC(=O)N3CCN(c4cccc(Cl)c4)CC3)CC2)cc(OC)c1OC [A13, (E)-1-(4-(3-chlorophenyl)piperazin-1-yl)-4-(4-(3-(3,4,5-trimethoxyphenyl)acryloyl)piperazin-1-yl)butan-1-one] yielded a responders at 100 mg/kg [1] of 25%, a responders at 100 mg/kg [2] of 25% and a responders at 100 mg/kg [3] of 0%. It also gave a responders at 100 mg/kg [4] of 0%.

COc1ccccc1N1CCN(C(=O)CCCN2CCN(C(=O)/C=C/c3cc(OC)c(OC)c(OC)c3)CC2)CC1 [A15, (E)-1-(4-(2-methoxyphenyl)piperazin-1-yl)-4-(4-(3-(3,4,5-trimethoxyphenyl)acryloyl)piperazin-1-yl)butan-1-one] was tested, and the responders at 100 mg/kg [1] was 75%, the responders at 100 mg/kg [2] was 75% and the responders at 100 mg/kg [3] was 25%. For the same compound, the responders at 100 mg/kg [4] was 0%.

For COc1cc(/C=C/C(=O)N2CCN(CCCC(=O)N3CCN(c4ncccn4)CC3)CC2)cc(OC)c1OC [A16, (E)-1-(4-(pyrimidin-2-yl)piperazin-1-yl)-4-(4-(3-(3,4,5-trimethoxyphenyl)acryloyl)piperazin-1-yl)butan-1-one], the responders at 100 mg/kg [1] was 75%, the responders at 100 mg/kg [2] was 75% and the responders at 100 mg/kg [3] was 50%. For the same compound, the responders at 100 mg/kg [4] was 0%.

For COc1cc(/C=C/C(=O)N2CCN(CCCC(=O)N3CCC(c4noc5cc(F)ccc45)CC3)CC2)cc(OC)c1OC [A17, (E)-1-(4-(6-fluorobenzo[d]isoxazol-3-yl)piperidin-1-yl)-4-(4-(3-(3,4,5-trimethoxyphenyl)acryloyl)piperazin-1-yl)butan-1-one], the responders at 100 mg/kg [1] was 50%, the responders at 100 mg/kg [2] was 50% and the responders at 100 mg/kg [3] was 25%. For the same compound, the responders at 100 mg/kg [4] was 0%.

Compound COc1cc(/C=C/C(=O)N2CCN(C(=O)CCC(=O)O)CC2)cc(OC)c1OC [B1] has a responders at 100 mg/kg [1] of 25%, a responders at 100 mg/kg [2] of 25% and a responders at 100 mg/kg [3] of 0%. It also gave a responders at 100 mg/kg [4] of 0%.

In the case of C=CCc1ccc(OC(=O)CCC(=O)N2CCN(C(=O)/C=C/c3cc(OC)c(OC)c(OC)c3)CC2)c(OC)c1 [B2, 4-allyl-2-methoxyphenyl (E)-4-oxo-4-(4-(3-(3,4,5-trimethoxyphenyl)acryloyl)piperazin-1-yl)butanoate], the responders at 100 mg/kg [1] is reported as 75%, the responders at 100 mg/kg [2] is reported as 75% and the responders at 100 mg/kg [3] is reported as 25%. It also gave a responders at 100 mg/kg [4] of 0%.

C/C=C/c1ccc(OC(=O)CCC(=O)N2CCN(C(=O)/C=C/c3cc(OC)c(OC)c(OC)c3)CC2)c(OC)c1 [B3, 2-methoxy-4-((E)-prop-1-en-1-yl)phenyl 4-oxo-4-(4-((E)-3-(3,4,5-trimethoxyphenyl)acryloyl)piperazin-1-yl)butanoate] showed a responders at 100 mg/kg [1] of 75%, a responders at 100 mg/kg [2] of 75% and a responders at 100 mg/kg [3] of 25%. For the same compound, the responders at 100 mg/kg [4] was 0%.

C=CCc1ccccc1OC(=O)CCC(=O)N1CCN(C(=O)/C=C/c2cc(OC)c(OC)c(OC)c2)CC1 [B4, 2-allylphenyl (E)-4-oxo-4-(4-(3-(3,4,5-trimethoxyphenyl)acryloyl)piperazin-1-yl)butanoate] showed a responders at 100 mg/kg [1] of 75%, a responders at 100 mg/kg [2] of 50% and a responders at 100 mg/kg [3] of 50%. It also gave a responders at 100 mg/kg [4] of 0%.

With COc1cc(/C=C/C(=O)N2CCN(C(=O)CCC(=O)O[C@H]3C[C@H]4CC[C@]3(C)C4(C)C)CC2)cc(OC)c1OC [B7, (1R,2S,4R)-1,7,7-trimethylbicyclo [2.2.1]heptan-2-yl 4-oxo-4-(4-((E)-3-(3,4,5-trimethoxyphenyl)acryloyl)piperazin-1-yl)butanoate] the responders at 100 mg/kg [1] was 75%, the responders at 100 mg/kg [2] was 50% and the responders at 100 mg/kg [3] was 25%. It also gave a responders at 100 mg/kg [4] of 0%.

COc1cc(/C=C/C(=O)N2CCN(C(=O)CCC(=O)N3CCN(C(c4ccccc4)c4ccccc4)CC3)CC2)cc(OC)c1OC [B8, (E)-1-(4-benzhydrylpiperazin-1-yl)-4-(4-(3-(3,4,5-trimethoxyphenyl)acryloyl)piperazin-1-yl)butane-1,4-dione] gave a responders at 100 mg/kg [1] of 75%, a responders at 100 mg/kg [2] of 75% and a responders at 100 mg/kg [3] of 25%. For the same compound, the responders at 100 mg/kg [4] was 0%.

COc1cc(/C=C/C(=O)N2CCN(C(=O)CCC(=O)N3CCN(c4nsc5ccccc45)CC3)CC2)cc(OC)c1OC [B10, (E)-1-(4-(benzo[d]isothiazol-3-yl)piperazin-1-yl)-4-(4-(3-(3,4,5-trimethoxyphenyl)acryloyl)piperazin-1-yl)butane-1,4-dione] gave a responders at 100 mg/kg [1] of 75%, a responders at 100 mg/kg [2] of 75% and a responders at 100 mg/kg [3] of 25%. It also gave a responders at 100 mg/kg [4] of 0%.

Work on COc1cc(/C=C/C(=O)N2CCN(C(=O)CCC(=O)N3CCN(c4ccccc4)CC3)CC2)cc(OC)c1OC [B11, (E)-1-(4-phenylpiperazin-1-yl)-4-(4-(3-(3,4,5-trimethoxyphenyl)acryloyl)piperazin-1-yl)butane-1,4-dione] yielded a responders at 100 mg/kg [1] of 50%, a responders at 100 mg/kg [2] of 50% and a responders at 100 mg/kg [3] of 25%. For the same compound, the responders at 100 mg/kg [4] was 0%.

In the case of COc1cc(/C=C/C(=O)N2CCN(C(=O)CCC(=O)N3CCN(c4cccc(Cl)c4)CC3)CC2)cc(OC)c1OC [B13, (E)-1-(4-(3-chlorophenyl)piperazin-1-yl)-4-(4-(3-(3,4,5-trimethoxyphenyl)acryloyl)piperazin-1-yl)butane-1,4-dione], the responders at 100 mg/kg [1] is reported as 50%, the responders at 100 mg/kg [2] is reported as 25% and the responders at 100 mg/kg [3] is reported as 0%. The responders at 100 mg/kg [4] was 0%.

For COc1cc(/C=C/C(=O)N2CCN(C(=O)CCC(=O)N3CCN(c4ccc(C(F)(F)F)cc4)CC3)CC2)cc(OC)c1OC [B14, (E)-1-(4-(4-(trifluoromethyl)phenyl)piperazin-1-yl)-4-(4-(3-(3,4,5-trimethoxyphenyl)acryloyl)piperazin-1-yl)butane-1,4-dione], the responders at 100 mg/kg [1] was 75%, the responders at 100 mg/kg [2] was 75% and the responders at 100 mg/kg [3] was 50%. The responders at 100 mg/kg [4] was 0%.

COc1ccccc1N1CCN(C(=O)CCC(=O)N2CCN(C(=O)/C=C/c3cc(OC)c(OC)c(OC)c3)CC2)CC1 [B15, (E)-1-(4-(2-methoxyphenyl)piperazin-1-yl)-4-(4-(3-(3,4,5-trimethoxyphenyl)acryloyl)piperazin-1-yl)butane-1,4-dione] showed a responders at 100 mg/kg [1] of 75%, a responders at 100 mg/kg [2] of 75% and a responders at 100 mg/kg [3] of 25%. The responders at 100 mg/kg [4] was 0%.
